pIC50: −log10 of the molar value.
Tests used:
[1] = biological target: T1, Flt-1 (Homo sapiens, UniProt P17948); test: In vitro receptor tyrosine kinase inhibition test (a), Flt-1; type: biochemical; conditions: read-out: IC50 in the enzyme assay (a) against Flt-1
T1 construct: encoding most of the cytoplasmic domain, commencing with methionine 783 and including the termination codon; made in house; host or cells: Sf21 insect cells, recombinant baculovirus
T1 sequence (P17948 781-1338 limits assumed): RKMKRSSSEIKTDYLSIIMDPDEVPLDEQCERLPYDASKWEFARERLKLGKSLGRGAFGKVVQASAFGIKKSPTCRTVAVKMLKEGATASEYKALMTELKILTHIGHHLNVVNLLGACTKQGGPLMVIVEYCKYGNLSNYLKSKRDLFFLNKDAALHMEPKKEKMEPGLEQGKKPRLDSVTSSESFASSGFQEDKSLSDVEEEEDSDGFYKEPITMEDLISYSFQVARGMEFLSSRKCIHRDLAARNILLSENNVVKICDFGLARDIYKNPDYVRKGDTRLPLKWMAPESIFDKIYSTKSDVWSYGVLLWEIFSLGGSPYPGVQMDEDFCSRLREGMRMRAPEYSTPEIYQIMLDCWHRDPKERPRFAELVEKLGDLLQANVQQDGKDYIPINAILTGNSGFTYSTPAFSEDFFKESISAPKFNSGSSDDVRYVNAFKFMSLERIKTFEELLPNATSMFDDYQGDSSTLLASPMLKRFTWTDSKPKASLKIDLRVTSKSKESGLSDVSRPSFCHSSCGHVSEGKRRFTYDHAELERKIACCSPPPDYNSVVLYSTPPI
Excerpt: (§1) This assay determines the ability of a test compound to inhibit tyrosine kinase activity. DNA encoding VEGF or epidermal growth factor (EGF) receptor cytoplasmic domains may be obtained by total gene synthesis (Edwards M, International Biotechnology Lab 5(3), 19-25, 1987) or by cloning. These may then be expressed in a suitable expression system to obtain polypeptide with tyrosine kinase activity. […] In the case of the VEGF receptor Flt (Genbank accession number X51602), a 1.7 kb DNA fragment encoding most of the cytoplasmic domain, commencing with methionine 783 and including the termination codon, described by Shibuya et al (Oncogene, 1990, 5: 519-524), was isolated from cDNA and cloned into a baculoviris transplacement vector (for example pAcYM1 (see The Baculovirus Expression System: A Laboratory Guide, L. A. King and R. D. Possee, Chapman and Hall, 1992) or pAc360 or pBlueBacHis (available from Invitrogen Corporation)). This recombinant construct was co-transfected into insect cells (for example Spodoptera frugiperda 21(Sf21)) with viral DNA (eg Pharmingen BaculoGold) to prepare recombinant baculovirus. […]

[2] = biological target: T2, KDR (Homo sapiens, UniProt P35968); test: In vitro receptor tyrosine kinase inhibition test (a), KDR; type: biochemical; conditions: read-out: IC50 in the enzyme assay (a) against KDR
T2 construct: made in house; host or cells: insect cells (e.g. Spodoptera frugiperda Sf21), recombinant baculovirus
T2 sequence (P35968 786-1356 limits assumed): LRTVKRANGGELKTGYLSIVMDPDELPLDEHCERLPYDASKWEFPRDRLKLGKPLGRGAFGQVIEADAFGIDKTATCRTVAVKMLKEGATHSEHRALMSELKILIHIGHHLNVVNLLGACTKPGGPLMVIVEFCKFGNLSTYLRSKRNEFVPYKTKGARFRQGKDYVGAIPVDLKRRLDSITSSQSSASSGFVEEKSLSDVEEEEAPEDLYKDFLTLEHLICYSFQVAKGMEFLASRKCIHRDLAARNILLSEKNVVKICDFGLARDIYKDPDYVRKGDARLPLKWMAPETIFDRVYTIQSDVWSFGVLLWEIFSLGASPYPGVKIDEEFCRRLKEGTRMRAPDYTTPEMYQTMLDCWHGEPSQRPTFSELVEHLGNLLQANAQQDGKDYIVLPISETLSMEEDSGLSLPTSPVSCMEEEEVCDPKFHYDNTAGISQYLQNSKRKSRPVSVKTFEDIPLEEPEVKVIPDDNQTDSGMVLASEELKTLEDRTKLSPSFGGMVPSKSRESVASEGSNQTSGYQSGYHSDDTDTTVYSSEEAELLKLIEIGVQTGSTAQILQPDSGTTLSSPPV
Excerpt: as §1

[3] = system: EGF-stimulated proliferation of human umbilical vein endothelial cells (HUVEC); test: In vitro HUVEC proliferation assay (b), EGF-stimulated; type: cell-based; conditions: EGF 3 ng/ml, read-out: IC50 in the HUVEC assay (b) with respect to EGF
Experimental: (§2) This assay determines the ability of a test compound to inhibit the growth factor-stimulated proliferation of human umbilical vein endothelial cells (HUVEC).
(§3) HUVEC cells were isolated in MCDB 131 (Gibco BRL)+7.5% v/v fetal calf serum (PCS) and were plated out (at passage 2 to 8), in MCDB 131+2% v/v FCS+3 μg/ml heparin+1 µg/ml hydrocortisone, at a concentration of 1000 cells/well in 96 well plates. After a minimum of 4 hours they were dosed with the appropriate growth factor (i.e. VEGF 3 ng/ml, EGF 3 ng/ml or b-FGF 0.3 ng/ml) and compound. The cultures were then incubated for 4 days at 37° C. with 7.5% carbon dioxide. On day 4 the cultures were pulsed with 1 μCi/well of tritiated-thymidine (Amersham product TRA 61) and incubated for 4 hours. The cells were harvested using a 96-well plate harvester (Tomtek) and then assayed for incorporation of tritium with a Beta plate counter. Incorporation of radioactivity into cells, expressed as cpm, was used to measure inhibition of growth factor-stimulated cell proliferation by compounds.

[4] = biological target: T3, human ether-a-go-go-related-gene (hERG)-encoded potassium channel (Homo sapiens, UniProt Q12809); test: hERG-encoded potassium channel inhibition test (d); type: cell-based; conditions: HEK cells, whole cell patch clamp, tail current
T3 construct: expressed in transfected cells; host or cells: Human embryonic kidney (HEK) cells under G418 selection
T3 sequence (Q12809 whole entry): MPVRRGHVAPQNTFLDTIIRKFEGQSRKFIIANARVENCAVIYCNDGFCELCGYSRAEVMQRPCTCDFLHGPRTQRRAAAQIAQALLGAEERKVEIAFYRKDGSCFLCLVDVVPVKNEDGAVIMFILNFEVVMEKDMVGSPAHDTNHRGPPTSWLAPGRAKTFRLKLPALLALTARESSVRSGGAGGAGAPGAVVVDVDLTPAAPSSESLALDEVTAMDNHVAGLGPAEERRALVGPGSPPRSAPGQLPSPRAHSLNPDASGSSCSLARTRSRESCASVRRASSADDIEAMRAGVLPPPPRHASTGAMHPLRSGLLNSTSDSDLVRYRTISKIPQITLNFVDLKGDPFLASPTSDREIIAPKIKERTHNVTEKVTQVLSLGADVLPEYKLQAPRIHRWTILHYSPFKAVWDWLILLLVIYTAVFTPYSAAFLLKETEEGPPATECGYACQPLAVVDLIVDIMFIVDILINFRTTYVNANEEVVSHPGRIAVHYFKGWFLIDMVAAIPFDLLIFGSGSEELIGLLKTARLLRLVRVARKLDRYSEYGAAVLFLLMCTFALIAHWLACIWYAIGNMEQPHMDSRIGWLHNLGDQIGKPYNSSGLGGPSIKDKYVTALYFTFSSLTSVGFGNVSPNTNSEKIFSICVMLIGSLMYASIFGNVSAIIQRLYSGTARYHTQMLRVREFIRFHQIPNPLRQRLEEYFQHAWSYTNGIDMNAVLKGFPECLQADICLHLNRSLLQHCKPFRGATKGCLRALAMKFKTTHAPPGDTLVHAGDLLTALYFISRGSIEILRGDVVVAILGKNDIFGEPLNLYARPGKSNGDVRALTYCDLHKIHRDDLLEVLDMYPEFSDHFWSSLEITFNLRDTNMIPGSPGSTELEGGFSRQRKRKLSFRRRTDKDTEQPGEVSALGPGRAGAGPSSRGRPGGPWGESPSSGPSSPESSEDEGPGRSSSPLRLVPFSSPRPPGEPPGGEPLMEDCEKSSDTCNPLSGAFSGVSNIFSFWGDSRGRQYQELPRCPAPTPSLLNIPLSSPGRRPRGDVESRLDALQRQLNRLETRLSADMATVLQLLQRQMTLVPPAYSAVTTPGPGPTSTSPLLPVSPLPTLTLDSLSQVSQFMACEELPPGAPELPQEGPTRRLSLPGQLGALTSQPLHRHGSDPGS
Experimental: This assay determines the ability of a test compound to inhibit the tail current flowing through the human ether-a-go-go-related-gene (hERG)-encoded potassium channel.
Human embryonic kidney (HEK) cells expressing the hERG-encoded channel were grown in Miniium Essential Medium Eagle (EMEM; Sigma-Aldrich catalogue number M2279), supplemented with 10% Foetal Calf Serum (Labtech Internation; product number 4-101-500), 10% M1 serum-free supplement (Egg Technologies; product number 70916) and 0.4 mg/ml Geneticin G418 (Sigma-Aldrich; catalogue number G7034). […]
For each cell recorded, a glass coverslp containing the cells were placed at the bottom of a Perspex chamber containging bath solution (see below) at ambient temperature (˜20° C.). […]
The cell was recorded in the whole cell configutation of the patch clamp technique. […]
The amplitude of the hERG-encoded potassium channel tail current following the step from +40 mV to −50 mV was recorded on-line by Clampex software (Axon Instruments). […]
The effect of each concentration of test compound was quantified by expressing the tail current amplitude in the presence of a given concentration of test compound as a percentage of that in the presence of vehicle.
Test compound potency (IC50) was determined by fitting the percentage inhibition values making up the concentration-effect to a four parameter Hill equation using a standard data-fitting package.

[5] = system: VEGF-stimulated proliferation of human umbilical vein endothelial cells (HUVEC); test: In vitro HUVEC proliferation assay (b), VEGF-stimulated; type: cell-based; conditions: VEGF 3 ng/ml, read-out: IC50 in the HUVEC assay (b) with respect to VEGF
Experimental: as §2, §3

[6] = biological target: T4, EGFR (Homo sapiens, UniProt P00533); test: In vitro receptor tyrosine kinase inhibition test (a), EGFR; type: biochemical; conditions: read-out: IC50 in the enzyme assay (a) against EGFR
T4 construct: made in house; host or cells: insect cells (e.g. Spodoptera frugiperda Sf21), recombinant baculovirus
T4 sequence (P00533 669-1210 limits assumed): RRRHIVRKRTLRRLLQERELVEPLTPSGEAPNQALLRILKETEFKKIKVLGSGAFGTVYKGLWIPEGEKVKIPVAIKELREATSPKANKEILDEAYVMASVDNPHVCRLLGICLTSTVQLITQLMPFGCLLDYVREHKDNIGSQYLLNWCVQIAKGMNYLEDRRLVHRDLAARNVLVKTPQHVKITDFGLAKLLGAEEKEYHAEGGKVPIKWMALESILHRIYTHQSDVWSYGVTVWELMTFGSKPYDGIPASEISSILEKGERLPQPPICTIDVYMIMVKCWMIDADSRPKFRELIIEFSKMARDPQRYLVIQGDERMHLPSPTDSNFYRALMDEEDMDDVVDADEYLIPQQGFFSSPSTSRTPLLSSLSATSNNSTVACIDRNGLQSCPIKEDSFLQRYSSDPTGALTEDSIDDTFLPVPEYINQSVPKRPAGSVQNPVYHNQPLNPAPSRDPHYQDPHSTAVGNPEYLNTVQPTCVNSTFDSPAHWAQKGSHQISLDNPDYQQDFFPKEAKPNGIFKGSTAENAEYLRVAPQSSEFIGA
Excerpt: as §1

COc1cc2c(Nc3ccc(Br)cc3F)ncnc2cc1OCC1CCN(C(=O)CN(C)C)CC1 [Example 1, 4-(4-bromo-2-fluoroanilino)-7-({1-[(N,N-dimethylamino)acetyl]piperidin-4-yl}methoxy)-6-methoxyquinazoline]
pIC50 [1]: 6.31
pIC50 [2]: 7.54
pIC50 [3]: 7.00
pIC50 [4]: 5.82
pIC50 [5]: 7.94
pIC50 [6]: 7.14

Reference: patent US20070027145A1, “Quinazoline derivatives as inhibitors of vegf receptor tyrosine kinases” (priority 2003, published 2007)
